Patent publication US11912718B2, “Solid forms of a thienopyrimidinedione ACC inhibitor and methods for production thereof” (Gilead Apollo, LLC, priority 2016, dated 2024)

What was measured:
[1] = Study B: multiple oral dose pharmacokinetics, 10 days; assay type: in vivo, human; settings: for AUC(0-inf) / Cmax / half-life / Tmax / AUC(0-t): human, in vivo, oral
Procedure: Study B (five (5) cohorts of 8 subjects (6 active and 2 placebo)) evaluated 50 mg twice daily (BID) (100 mg daily), 100 mg once daily (QD) (100 mg daily), 100 mg BID (200 mg daily), 200 mg QD (200 mg daily), or 150 mg QD (150 mg daily), or matching placebo. Subjects received multiple oral doses of Compound 1 or placebo for 9 consecutive days, with a single oral dose of Compound 1 or placebo on the morning of Day 10. Doses were administered approximately 30 minutes after meals.
Table 13 summarizes PK parameters of Study B after 10 days. The reported factors may vary up to about 2%.

[2] = Study A: single oral dose pharmacokinetics in healthy subjects; assay type: in vivo, human; settings: for AUC(0-t) / Tmax / AUC(0-inf) / Cmax / half-life: human, plasma, fasted; for AUC(0-t): po; for AUC(0-t) / AUC(0-inf) / Cmax / half-life: mean ± SD; for Tmax: Mean (Min, Max)
Procedure: Study A evaluated the safety and tolerability of 30, 80, 200, 500, 800, and 1000 mg in the fasted state and 200 mg following a high fat meal (fed state) to cohorts of 8 healthy subjects (6 active and 2 placebo control per group).
Table 12 summarizes PK parameters (mean) under fasted conditions of Study A. The reported factors may vary up to about 2%.

[3] = 100 mg, 100 mg BID, Day 1, value available for one subject

AUC(0-inf) ([1]; 50 mg, 50 mg BID, Day 1): 178 ± 41 ng·h/mL | Cmax ([1]; 50 mg, 50 mg BID, Day 1): 41 ± 14 ng/mL | half-life ([1]; 50 mg, 50 mg BID, Day 1): 3.5 ± 1.6 h | Tmax ([1]; 50 mg, 50 mg BID, Day 1, Mean (Min, Max)): 2.4 h | AUC(0-t) ([1]; 50 mg, 50 mg BID, Day 1, read-out: AUC0-12): 143 ± 29 ng·h/mL | AUC(0-t) ([1]; 50 mg, 50 mg BID, Day 1, read-out: AUC0-t): 143 ± 29 ng·h/mL | half-life ([1]; 50 mg, 50 mg BID, Day 10): 10.3 ± 6.7 h | AUC(0-t) ([1]; 50 mg, 50 mg BID, Day 10, read-out: AUC0-t): 403 ± 104 ng·h/mL | Cmax ([1]; 50 mg, 50 mg BID, Day 10 steady state): 49 ± 15 ng/mL | Tmax ([1]; 50 mg, 50 mg BID, Day 10 steady state, Mean (Min, Max)): 4.5 h | Cmax ([1]; 100 mg, 100 mg BID, Day 1): 61.6 ± 15 ng/mL | Tmax ([1]; 100 mg, 100 mg BID, Day 1, Mean (Min, Max)): 5.2 h | AUC(0-t) ([1]; 100 mg, 100 mg BID, Day 1, read-out: AUC0-12): 345 ± 78 ng·h/mL | AUC(0-t) ([1]; 100 mg, 100 mg BID, Day 1, read-out: AUC0-t): 345 ± 77 ng·h/mL | AUC(0-inf) [1, 3]: 671 ng·h/mL | half-life [1, 3]: 5.6 h | half-life ([1]; 100 mg, 100 mg BID, Day 10): 6.8 ± 1.6 h | AUC(0-t) ([1]; 100 mg, 100 mg BID, Day 10, read-out: AUC0-t): 1120 ± 362 ng·h/mL | Cmax ([1]; 100 mg, 100 mg BID, Day 10 steady state): 121 ± 56 ng/mL | Tmax ([1]; 100 mg, 100 mg BID, Day 10 steady state, Mean (Min, Max)): 5.2 h | AUC(0-inf) ([1]; 100 mg, 100 mg QD, Day 1): 278 ± 110 ng·h/mL | Cmax ([1]; 100 mg, 100 mg QD, Day 1): 65 ± 32 ng/mL | half-life ([1]; 100 mg, 100 mg QD, Day 1): 4.3 ± 0.7 h | AUC(0-t) ([1]; 100 mg, 100 mg QD, Day 1, read-out: AUC0-12): 234 ± 86 ng·h/mL | AUC(0-t) ([1]; 100 mg, 100 mg QD, Day 1, read-out: AUC0-t): 268 ± 96 ng·h/mL | half-life ([1]; 100 mg, 100 mg QD, Day 10): 7.9 ± 4.5 h | AUC(0-t) ([1]; 100 mg, 100 mg QD, Day 10, read-out: AUC0-12): 285 ± 115 ng·h/mL | AUC(0-t) ([1]; 100 mg, 100 mg QD, Day 10, read-out: AUC0-t): 400 ± 181 ng·h/mL | Cmax ([1]; 100 mg, 100 mg QD, Day 10 steady state): 54 ± 22 ng/mL | Tmax ([1]; 100 mg, 100 mg QD, Day 10 steady state, Mean (Min, Max)): 4.5 h | AUC(0-inf) ([1]; 150 mg, 150 mg QD, Day 1): 587 ± 254 ng·h/mL | Cmax ([1]; 150 mg, 150 mg QD, Day 1): 94 ± 40 ng/mL | half-life ([1]; 150 mg, 150 mg QD, Day 1): 3.9 ± 1.1 h | Tmax ([1]; 150 mg, 150 mg QD, Day 1, Mean (Min, Max)): 3.3 h | AUC(0-t) ([1]; 150 mg, 150 mg QD, Day 1, read-out: AUC0-12): 489 ± 218 ng·h/mL | AUC(0-t) ([1]; 150 mg, 150 mg QD, Day 1, read-out: AUC0-t): 572 ± 247 ng·h/mL | half-life ([1]; 150 mg, 150 mg QD, Day 10): 6.6 ± 2.8 h | AUC(0-t) ([1]; 150 mg, 150 mg QD, Day 10, read-out: AUC0-12): 637 ± 246 ng·h/mL | AUC(0-t) ([1]; 150 mg, 150 mg QD, Day 10, read-out: AUC0-t): 933 ± 424 ng·h/mL | Cmax ([1]; 150 mg, 150 mg QD, Day 10 steady state): 111 ± 52 ng/mL | Tmax ([1]; 150 mg, 150 mg QD, Day 10 steady state, Mean (Min, Max)): 6.5 h | AUC(0-inf) ([1]; 200 mg, 200 mg QD, Day 1): 979 ± 286 ng·h/mL | Cmax ([1]; 200 mg, 200 mg QD, Day 1): 152 ± 68 ng/mL | half-life ([1]; 200 mg, 200 mg QD, Day 1): 5.9 ± 3.6 h | Tmax ([1]; 200 mg, 200 mg QD, Day 1, Mean (Min, Max)): 4.7 h | AUC(0-t) ([1]; 200 mg, 200 mg QD, Day 1, read-out: AUC0-12): 707 ± 191 ng·h/mL | AUC(0-t) ([1]; 200 mg, 200 mg QD, Day 1, read-out: AUC0-t): 868 ± 220 ng·h/mL | half-life ([1]; 200 mg, 200 mg QD, Day 10): 5.9 ± 1 h | AUC(0-t) ([1]; 200 mg, 200 mg QD, Day 10, read-out: AUC0-12): 1220 ± 362 ng·h/mL | AUC(0-t) ([1]; 200 mg, 200 mg QD, Day 10, read-out: AUC0-t): 2050 ± 819 ng·h/mL | Cmax ([1]; 200 mg, 200 mg QD, Day 10 steady state): 198 ± 87 ng/mL | Tmax ([1]; 200 mg, 200 mg QD, Day 10 steady state, Mean (Min, Max)): 3.7 h | change of maximal exposure (Cmax) from Day 1 to Day 10 ([1]; multiple dosing, all regimens): generally increased | increase of overall exposure (AUCt) on Day 10 compared to Day 1 ([1]; multiple dosing, all regimens): 1.5-3.0 fold | range of mean t1/2 independent of dose or regimen on each study day ([1]; multiple dosing, all regimens): ≤ 2 fold | maximum plasma exposure (Cmax) lower under fed compared to fasted conditions ([2]; 200 mg, fed (high fat meal) versus fasted): approximately 68% | mean t1/2, CL/F, Vz/F and median tmax, fed versus fasted ([2]; 200 mg, fed and fasted conditions): comparable | AUC(0-t) ([2]; 30 mg, single oral dose 30 mg, read-out: AUC0-t): 176 ± 104 ng·h/mL | AUC(0-t) ([2]; 80 mg, single oral dose 80 mg, read-out: AUC0-12): 395 ± 198 ng·h/mL | AUC(0-t) ([2]; 80 mg, single oral dose 80 mg, read-out: AUC0-t): 363 ± 215 ng·h/mL | AUC(0-t) ([2]; 200 mg, single oral dose 200 mg, read-out: AUC0-12): 1000 ± 545 ng·h/mL | AUC(0-t) ([2]; 200 mg, single oral dose 200 mg, read-out: AUC0-t): 1210 ± 536 ng·h/mL | AUC(0-t) ([2]; 500 mg, single oral dose 500 mg, read-out: AUC0-12): 1240 ± 547 ng·h/mL | AUC(0-t) ([2]; 500 mg, single oral dose 500 mg, read-out: AUC0-t): 2930 ± 2440 ng·h/mL | AUC(0-t) ([2]; 800 mg, single oral dose 800 mg, read-out: AUC0-t): 6420 ± 3180 ng·h/mL | AUC(0-t) ([2]; 1000 mg, single oral dose 1000 mg, read-out: AUC0-t): 17400 ± 8400 ng·h/mL | Tmax ([2]; single oral dose 30 mg): 1.3 h | AUC(0-inf) ([2]; single oral dose 30 mg): 179 ± 115 ng·h/mL | Cmax ([2]; single oral dose 30 mg): 80 ± 66 ng/mL | half-life ([2]; single oral dose 30 mg): 4.5 ± 1.6 h | Tmax ([2]; single oral dose 80 mg): 1.8 h | AUC(0-inf) ([2]; single oral dose 80 mg): 402 ± 225 ng·h/mL | Cmax ([2]; single oral dose 80 mg): 101 ± 48 ng/mL | half-life ([2]; single oral dose 80 mg): 7 ± 2.8 h | Tmax ([2]; single oral dose 200 mg): 1.9 h | AUC(0-inf) ([2]; single oral dose 200 mg): 1250 ± 616 ng·h/mL | Cmax ([2]; single oral dose 200 mg): 416 ± 22 ng/mL | half-life ([2]; single oral dose 200 mg): 12 ± 1.4 h | Tmax ([2]; single oral dose 500 mg): 1.9 h | AUC(0-inf) ([2]; single oral dose 500 mg): 2960 ± 2460 ng·h/mL | Cmax ([2]; single oral dose 500 mg): 1110 ± 1150 ng/mL | half-life ([2]; single oral dose 500 mg): 10.2 ± 2.1 h | Tmax ([2]; single oral dose 800 mg): 2.1 h | AUC(0-inf) ([2]; single oral dose 800 mg): 6460 ± 3190 ng·h/mL | Cmax ([2]; single oral dose 800 mg): 2570 ± 1880 ng/mL | half-life ([2]; single oral dose 800 mg): 8.2 ± 3.3 h | Tmax ([2]; single oral dose 1000 mg): 2.4 h | AUC(0-inf) ([2]; single oral dose 1000 mg): 17500 ± 8410 ng·h/mL | Cmax ([2]; single oral dose 1000 mg): 8380 ± 3210 ng/mL | half-life ([2]; single oral dose 1000 mg): 9.5 ± 2.6 h
SMILES: COc1ccccc1[C@H](Cn1c(=O)n(C(C)(C)C(=O)O)c(=O)c2c(C)c(-c3ncco3)sc21)OC1CCOCC1 [Compound 1, (R)-2-(1-(2-(2-methoxyphenyl)-2-((tetrahydro-2H-pyran-4-yl)oxy)ethyl)-5-methyl-6-(oxazol-2-yl)-2,4-dioxo-1,2-dihydrothieno[2,3-d]pyrimidin-3(4H)-yl)-2-methylpropanoic acid]
